Values of other authors, collected in US11028348B2, “Naturally-derived antimicrobial cleaning solutions” (ProNatural Brands LLC, priority 2014, dated 2021).

Conditions: standard pKa

pKa1: 3.1 | pKa2: 4.8 | pKa3: 6.4
SMILES: O=C(O)CC(O)(CC(=O)O)C(=O)O [citric acid]
